Assay results from article doi:10.1101/819920v2 (biorxiv, 2020).

Molecular target: YegI (Escherichia coli, UniProt Q8X7J8)
Experiment: biochemical

Chain of YegI (Q8X7J8 whole entry): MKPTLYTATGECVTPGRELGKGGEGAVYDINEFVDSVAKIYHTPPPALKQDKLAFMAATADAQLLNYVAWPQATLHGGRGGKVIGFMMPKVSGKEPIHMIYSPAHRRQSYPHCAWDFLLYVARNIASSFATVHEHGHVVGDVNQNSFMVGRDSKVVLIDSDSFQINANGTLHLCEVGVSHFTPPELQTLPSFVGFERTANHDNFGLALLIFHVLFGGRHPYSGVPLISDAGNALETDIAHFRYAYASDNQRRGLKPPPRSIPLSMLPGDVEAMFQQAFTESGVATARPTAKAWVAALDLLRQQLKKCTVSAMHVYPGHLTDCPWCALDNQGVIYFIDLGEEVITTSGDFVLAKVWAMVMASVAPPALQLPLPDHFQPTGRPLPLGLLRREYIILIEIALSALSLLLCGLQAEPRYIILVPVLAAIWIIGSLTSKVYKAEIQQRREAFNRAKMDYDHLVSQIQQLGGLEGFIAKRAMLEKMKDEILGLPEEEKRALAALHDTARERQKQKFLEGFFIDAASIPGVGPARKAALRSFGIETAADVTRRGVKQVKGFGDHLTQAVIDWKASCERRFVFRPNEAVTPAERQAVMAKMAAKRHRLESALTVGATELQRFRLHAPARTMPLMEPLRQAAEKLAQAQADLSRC

CN[C@@H]1C[C@H]2O[C@@](C)([C@@H]1OC)n1c3ccccc3c3c4c(c5c6ccccc6n2c5c31)C(=O)NC4 [staurosporine]
IC50: ~50 µM
